Results as given in patent US20130225830A1, “POLYMORPHS OF FEBUXOSTAT” (MAPI PHARMA LIMITED, priority 2010, published 2013).
In brackets after ≈: the same amount, converted by molar mass. Several values for one entry are separate records, joined by “and”; a condition that tells them apart may be missing. Identical values can stand only once. Like-named read-outs stand apart in the source and are kept apart here.

Columns and labels:
Assay type in all cases: physicochemical
[1] = Solid stability measurements (appearance, assay and total related substances by HPLC); settings: for change of assay and TRS (in words): 60° C./75% RH at end of the first and second weeks; for Remaining (%): one value for both samples, vs −20° C. control; for Appearance / TRS (%): samples 1 and 2
Description: The detailed chromatographic conditions are listed hereinbelow. The typical retention time of febuxostat main peak is 8.2 min. [table] Testing conditions: 40° C., 60° C., 40° C./RH 75%, 60° C./RH 75%, light Testing procedure: About 3 mg of a febuxostat form were weighed in a glass vial and stored under the different conditions for 1 week and 2 weeks, separately. The same febuxostat form was stored at −20° C. as control. The test was conducted in duplication. The physical appearance, assay and total related substances of each of the febuxostat forms were measured by HPLC at the end of the first and second weeks.

[2] = Physical stability measurements (XRPD, DSC, TGA); settings: for physical stability (XRPD, DSC, TGA): 40° C., 60° C. and light at the end of the first and second week
Description: Testing conditions: 40° C., 60° C., 40° C./RH 75%, 60° C./RH 75%, light
Testing procedure: About 50 mg of a febuxostat form were weighed in glass vial for testing the physical stability and were stored under different conditions for 1 week and 2 weeks, separately. The same febuxostat form was stored at −20° C. as control. XRPD, DSC and TGA of each of the febuxostat forms were measured at the end of the first and second weeks.

[3] = Aqueous solubility measurements; settings: for pH: final pH of saturated solution; for solubility at 24 h: thermodynamic from solid, read-out: HPLC solubility
Description: Testing media: water, pH 1.2, 4.5, 6.8, 7.4 USP buffers, 0.01 N HCl, 0.1 N HCl, SGF, FaSSIF, FeSSIF.
The various testing media were prepared as follows:
pH 1.2 (USP): 50 mL of 0.2 M potassium chloride solution were placed in a 200 mL volumetric flask to which 85.0 mL of 0.2M hydrochloric acid solution were added followed by the addition of water to obtain the required volume.
pH 4.5 (USP): 50 mL of 0.2 M potassium biphthalate solution were placed in a 200 mL volumetric flask to which 8.8 mL of 0.2 M sodium hydroxide solution were added followed by the addition of water to obtain the required volume.
pH 6.8 (USP): 50 mL of 0.2 M monobasic potassium phosphate solution were placed in a 200 mL volumetric flask to which 22.4 mL of 0.2 M sodium hydroxide solution were added followed by the addition of water to obtain the required volume.
pH 7.4 (USP): 50 mL of 0.2 M monobasic potassium phosphate solution were placed in a 200 mL volumetric flask to which 39.1 mL of 0.2 M sodium hydroxide solution were added followed by the addition of water to obtain the required volume.
Simulated gastric fluid (SGF): 0.01 N HCl, 0.05% sodium lauryl sulfate, and 0.2% NaCl.
Fasted state simulated intestinal fluid (FaSSIF): 29 mM NaH2PO4, 3 mM Na taurocholate, 0.75 mM lecithin, 103 mM NaCl, and NaOH to obtain pH 6.5.
Fed state simulated intestinal fluid (FeSSIF): 144 mM acetic acid, 15 mM Na taurocholate, 3.75 mM lecithin, 204 mM NaCl, and NaOH to obtain pH 5.0.
Testing procedure: The tested febuxostat form was placed in each of the different media and was kept shaken for 24 hours at 25° C. Then, the saturated solution was filtered. The concentration of the febuxostat form in filtrate was determined by HPLC. The final pH was then tested. The test was conducted in duplication.

[4] = 40° C./75% RH at the end of the second week
[5] = 60° C./75% RH at the end of the first and second weeks
[6] = media 0.01N HCl, 24 hours at 25° C.
[7] = media 0.1N HCl, 24 hours at 25° C.
[8] = media FaSSIF, 24 hours at 25° C.
[9] = media FeSSIF, 24 hours at 25° C.
[10] = media pH 1.2 (USP), 24 hours at 25° C.
[11] = media pH 4.5 (USP), 24 hours at 25° C.
[12] = media pH 6.8 (USP), 24 hours at 25° C.
[13] = media pH 7.4 (USP), 24 hours at 25° C.
[14] = media water, shaken 24 hours at 25° C.
[15] = media water, 24 hours at 25° C.
[16] = pH1.2 USP buffer, 0.01N HCl, 0.1N HCl and SGF
[17] = pH6.8 USP buffer, pH7.4 USP buffer, FaSSIF, FeSSIF

Cc1nc(-c2ccc(OCC(C)C)c(C#N)c2)sc1C(=O)O [Form IX, 2-(3-cyano-4-isobutoxyphenyl)-4-methyl-5-thiazolecarboxylic acid]
change of assay and TRS (in words) ([1]; 40° C., 60° C., 40° C./75% RH): no significant change | Remaining (%) ([1]; 40° C., 7 d): 99.70% | Appearance ([1]; 40° C., 7 d): No change | TRS (%) ([1]; 40° C., 7 d): 1.28% and 1.30% | Remaining (%) ([1]; 40° C., 14 d): 100.02% | Appearance ([1]; 40° C., 14 d): No change | TRS (%) ([1]; 40° C., 14 d): 1.29% and 1.32% | Remaining (%) ([1]; 40° C./75% RH, 7 d): 100.47% | Appearance ([1]; 40° C./75% RH, 7 d): No change | TRS (%) ([1]; 40° C./75% RH, 7 d): 1.34% and 1.31% | Remaining (%) ([1]; 40° C./75% RH, 14 d): 99.47% | Appearance ([1]; 40° C./75% RH, 14 d): No change | TRS (%) ([1]; 40° C./75% RH, 14 d): 1.35% and 1.33% | Remaining (%) ([1]; 60° C., 7 d): 100.80% | Appearance ([1]; 60° C., 7 d): No change | TRS (%) ([1]; 60° C., 7 d): 1.37% and 1.35% | Remaining (%) ([1]; 60° C., 14 d): 100.41% | Appearance ([1]; 60° C., 14 d): No change | TRS (%) ([1]; 60° C., 14 d): 1.38% and 1.35% | Remaining (%) ([1]; 60° C./75% RH, 7 d): 100.89% | Appearance ([1]; 60° C./75% RH, 7 d): No change | TRS (%) ([1]; 60° C./75% RH, 7 d): 1.33% | Remaining (%) ([1]; 60° C./75% RH, 14 d): 100.07% | Appearance ([1]; 60° C./75% RH, 14 d): No change | TRS (%) ([1]; 60° C./75% RH, 14 d): 1.35% and 1.33% | Remaining (%) ([1]; Light, 7 d): 97.50% | Appearance ([1]; Light, 7 d): Light yellow | TRS (%) ([1]; Light, 7 d): 3.07% and 3.05% | Remaining (%) ([1]; Light, 14 d): 92.81% | Appearance ([1]; Light, 14 d): Light yellow | TRS (%) ([1]; Light, 14 d): 6.30% and 6.54% | Appearance ([1]; −20° C. (control), 7 d): No change | TRS (%) ([1]; −20° C. (control), 7 d): 1.23% and 1.22% | Appearance ([1]; −20° C. (control), 14 d): No change | TRS (%) ([1]; −20° C. (control), 14 d): 1.24% and 1.23% | physical stability (XRPD, DSC, TGA) [2]: stable | physical stability (XRPD, DSC, TGA), form conversion [2, 4]: partially converted to form G | physical stability (XRPD, DSC, TGA), form conversion [2, 5]: completely converted to form G | solubility at colon-simulated media and intestinal fluids (in words) ([3]; colon-simulated media (pHs=6.8-7.4) and intestinal fluids): improved solubility | pH [3, 6]: 2.078 | pH [3, 7]: 1.060 | pH [3, 8]: 6.246 | pH [3, 9]: 4.983 | pH ([3]; media SGF, 24 hours at 25° C.): 2.097 | pH [3, 10]: 1.242 | pH [3, 11]: 4.524 | pH [3, 12]: 6.477 | pH [3, 13]: 6.690 | pH [3, 14]: 5.403 | Visual solubility [3, 6]: Turbid + few particles | Visual solubility [3, 7]: Turbid + few particles | HPLC solubility [3, 8]: 606.65 µg/mL | Visual solubility [3, 8]: Turbid | HPLC solubility [3, 9]: 192.53 µg/mL | Visual solubility [3, 9]: Turbid | Visual solubility ([3]; media SGF, 24 hours at 25° C.): Turbid | Visual solubility [3, 10]: Turbid + few particles | HPLC solubility [3, 11]: 0.78 µg/mL | Visual solubility [3, 11]: Turbid + few particles | HPLC solubility [3, 12]: 1409.99 µg/mL | Visual solubility [3, 12]: Turbid + few particles | HPLC solubility [3, 13]: 4836.10 µg/mL | Visual solubility [3, 13]: Slightly turbid | HPLC solubility [3, 15]: 32.99 µg/mL | Visual solubility [3, 15]: Turbid + few particles | aqueous solubility (in words) [3, 16]: poor solubility | aqueous solubility (in words) [3, 17]: good solubility

Cc1nc(-c2ccc(OCC(C)C)c(C#N)c2)sc1C(=O)O [Form V, 2-(3-cyano-4-isobutoxyphenyl)-4-methyl-5-thiazolecarboxylic acid]
change of assay and TRS (in words) ([1]; 40° C., 60° C., 40° C./75% RH): no significant change | Remaining (%) ([1]; 40° C., 7 d): 100.62% | Appearance ([1]; 40° C., 7 d): No change | TRS (%) ([1]; 40° C., 7 d): 0.45% | Remaining (%) ([1]; 40° C., 14 d): 100.01% | Appearance ([1]; 40° C., 14 d): No change | TRS (%) ([1]; 40° C., 14 d): 0.46% and 0.47% | Remaining (%) ([1]; 40° C./75% RH, 7 d): 99.40% | Appearance ([1]; 40° C./75% RH, 7 d): No change | TRS (%) ([1]; 40° C./75% RH, 7 d): 0.47% and 0.48% | Remaining (%) ([1]; 40° C./75% RH, 14 d): 99.03% | Appearance ([1]; 40° C./75% RH, 14 d): No change | TRS (%) ([1]; 40° C./75% RH, 14 d): 0.50% and 0.52% | Remaining (%) ([1]; 60° C., 7 d): 100.65% | Appearance ([1]; 60° C., 7 d): No change | TRS (%) ([1]; 60° C., 7 d): 0.53% and 0.51% | Remaining (%) ([1]; 60° C., 14 d): 100.06% | Appearance ([1]; 60° C., 14 d): No change | TRS (%) ([1]; 60° C., 14 d): 0.54% and 0.53% | Remaining (%) ([1]; 60° C./75% RH, 7 d): 98.20% | Appearance ([1]; 60° C./75% RH, 7 d): No change | TRS (%) ([1]; 60° C./75% RH, 7 d): 0.51% and 0.52% | Remaining (%) ([1]; 60° C./75% RH, 14 d): 98.87% | Appearance ([1]; 60° C./75% RH, 14 d): No change | TRS (%) ([1]; 60° C./75% RH, 14 d): 0.52% and 0.53% | Remaining (%) ([1]; Light, 7 d): 97.74% | Appearance ([1]; Light, 7 d): Light yellow | TRS (%) ([1]; Light, 7 d): 1.02% and 1.18% | Remaining (%) ([1]; Light, 14 d): 94.06% | Appearance ([1]; Light, 14 d): Light yellow | TRS (%) ([1]; Light, 14 d): 5.99% and 5.08% | Appearance ([1]; −20° C. (control), 7 d): No change | TRS (%) ([1]; −20° C. (control), 7 d): 0.40% and 0.39% | Appearance ([1]; −20° C. (control), 14 d): No change | TRS (%) ([1]; −20° C. (control), 14 d): 0.42% and 0.41% | physical stability (XRPD, DSC, TGA) [2]: stable | physical stability (XRPD, DSC, TGA), form conversion ([2]; 40° C./75% RH at the end of the first week): partially converted to form G | physical stability (XRPD, DSC, TGA), form conversion [2, 4]: completely converted to form G | physical stability (XRPD, DSC, TGA), form conversion [2, 5]: completely converted to form G | solubility at 24 h ([3]; USP buffer pH 6.8, 25 °C, pH 6.8, aqueous buffer, media pH 6.8 (USP), 24 hours at 25° C.): 1120 µg/mL (≈ 3550 µM) | pH [3, 6]: 2.003 | pH [3, 7]: 0.951 | pH [3, 8]: 6.384 | pH [3, 9]: 4.995 | pH ([3]; media SGF, 24 hours at 25° C.): 2.108 | pH [3, 10]: 1.157 | pH [3, 11]: 4.452 | pH [3, 12]: 6.641 | pH [3, 13]: 6.960 | pH [3, 14]: 7.520 | Visual solubility [3, 6]: few particles | Visual solubility [3, 7]: few particles | HPLC solubility [3, 8]: 513.37 µg/mL | Visual solubility [3, 8]: Turbid + few particles | HPLC solubility [3, 9]: 180.61 µg/mL | Visual solubility [3, 9]: Turbid + few particles | Visual solubility ([3]; media SGF, 24 hours at 25° C.): few particles | Visual solubility [3, 10]: few particles | HPLC solubility [3, 11]: 0.38 µg/mL | Visual solubility [3, 11]: Turbid + few particles | Visual solubility [3, 12]: Turbid + few particles | HPLC solubility [3, 13]: 4317.12 µg/mL | Visual solubility [3, 13]: Slightly turbid | Visual solubility [3, 15]: Turbid + few particles | aqueous solubility (in words) [3, 16]: poor solubility | aqueous solubility (in words) [3, 17]: good solubility | solubility at 24 h ([3]; water, 25 °C, water, media water, 24 hours at 25° C.): 54.9 µg/mL (≈ 173 µM)
